Legend:
adjuvant arthritis = conditions: known to be active or inactive; cited from earlier work
RZR/RORα = molecular target: T1, RZR/RORα (Homo sapiens, UniProt P35398); experiment: CAT reporter assay for ligand induced activation, Drosophila SL-3 cells transfected with RZR/RORα; assay type: cell-based; conditions: when applied in the nanomolar range
T1 construct: RZRα is likely the RORalpha4 splice form
T1 sequence (P35398 1-523): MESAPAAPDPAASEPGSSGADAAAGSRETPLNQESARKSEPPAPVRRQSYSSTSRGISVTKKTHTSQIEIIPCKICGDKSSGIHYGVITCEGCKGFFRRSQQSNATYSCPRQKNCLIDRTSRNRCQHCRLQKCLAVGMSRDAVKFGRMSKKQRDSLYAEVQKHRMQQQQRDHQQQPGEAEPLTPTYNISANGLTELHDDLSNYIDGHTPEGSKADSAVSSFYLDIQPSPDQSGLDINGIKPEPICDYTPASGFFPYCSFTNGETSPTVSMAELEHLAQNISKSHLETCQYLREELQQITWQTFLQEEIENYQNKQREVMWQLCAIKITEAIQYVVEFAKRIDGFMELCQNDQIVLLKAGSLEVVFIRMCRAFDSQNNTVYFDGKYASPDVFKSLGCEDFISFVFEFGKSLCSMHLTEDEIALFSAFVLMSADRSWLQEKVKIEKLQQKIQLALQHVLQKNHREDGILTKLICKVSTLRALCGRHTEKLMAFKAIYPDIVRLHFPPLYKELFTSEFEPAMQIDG
Method: After dilution with 0.9 ml Schneider's medium, the liposomes are added to the cells.
The values given in table 1 represent the mean activation of CAT activities measured in three independent experiments, compared to the addition of pure solvent (ethanol).

affinity to the RZR/RORα receptor (RZR/RORα)	Structure (SMILES)	activity in adjuvant arthritis (adjuvant arthritis)
	C=C1/C(=C\C=C2/CCC[C@]3(C)[C@@H]([C@H](C)CCCC(C)(C)O)CC[C@@H]23)C[C@@H](O)C[C@@H]1O [vitamin D, 1,25-dihydroxyvitaminD3]	-
	CC1=C(/C=C/C(C)=C/C=C/C(C)=C/C(=O)O)C(C)(C)CCC1 [9-cis RA, retinoic acid]	-
high affinity	COc1ccc2[nH]cc(CCNC(C)=O)c2c1 [melatonin]	
	CC1=C(/C=C/C(C)=C/C=C/C(C)=C/C(=O)O)C(C)(C)CCC1 [all trans RA, retinoic acid]	-
